Laboratory results taken from PubChem BioAssay (NCI).
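The concentration for 50% growth inhibition is given as GI50. TGI: total growth inhibition.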

Key:
Test in all cases: inhibition of tumour cell growth, NCI panel, 384-well format
[1] = tested on: NCI-H226 lung
[2] = tested on: NCI-H23 lung
[3] = tested on: NCI-H460 NSCLC
[4] = tested on: NCI-H522 lung
[5] = tested on: NCI/ADR-RES ovarian
[6] = tested on: OVCAR-3 ovarian
[7] = tested on: OVCAR-4 ovarian
[8] = tested on: OVCAR-5 ovarian
[9] = tested on: OVCAR-8 ovarian
[10] = tested on: PC-3 prostate
[11] = tested on: RPMI-8226 leukemia
[12] = tested on: RXF 393 renal
[13] = tested on: SF-268 CNS
[14] = tested on: SF-295 CNS
[15] = tested on: SF-539 CNS
[16] = tested on: SK-MEL-5 melanoma
[17] = tested on: SK-OV-3 ovarian
[18] = tested on: SN12C renal
[19] = tested on: SNB-19 CNS
[20] = tested on: SNB-75 CNS
[21] = tested on: SR leukemia
[22] = tested on: SW-620 colon
[23] = tested on: T-47D breast
[24] = tested on: TK-10 renal
[25] = tested on: U251 glioblastoma
[26] = tested on: UACC-257 melanoma
[27] = tested on: UACC-62 melanoma
[28] = tested on: UO-31 renal

CN(C)CCNC(=O)NC[C@H]1CC[C@@H]2[C@H](O1)c1cc(C(F)(F)F)ccc1N[C@H]2c1ccccc1
GI50 [1]: 2.76 µM
TGI [1]: 23.1 µM
GI50 [2]: 0.124 µM
TGI [2]: 1.98 µM
GI50 [3]: 0.036 µM
TGI [3]: 0.13 µM
GI50 [4]: 0.0298 µM
TGI [4]: 0.0736 µM
GI50 [5]: 4.3 µM
TGI [5]: 18.9 µM
GI50 [6]: 0.0375 µM
TGI [6]: 0.164 µM
GI50 [7]: 0.37 µM
TGI [7]: 10.8 µM
GI50 [8]: 0.38 µM
TGI [8]: 12.7 µM
GI50 [9]: 0.0634 µM
TGI [9]: 16.6 µM
GI50 [10]: 0.128 µM
TGI [10]: 17.7 µM
GI50 [11]: 0.0193 µM
TGI [11]: 0.0389 µM
GI50 [12]: 0.0784 µM
TGI [12]: 13.3 µM
GI50 [13]: 0.289 µM
TGI [13]: 16.4 µM
GI50 [14]: 0.171 µM
TGI [14]: 2.06 µM
GI50 [15]: 0.0937 µM
TGI [15]: 10.8 µM
GI50 [16]: 0.0398 µM
TGI [16]: 0.37 µM
GI50 [17]: 0.0425 µM
TGI [17]: 18.1 µM
GI50 [18]: 5.12 µM
TGI [18]: 31.3 µM
GI50 [19]: 0.163 µM
TGI [19]: 19.3 µM
GI50 [20]: 0.152 µM
TGI [20]: 16.2 µM
GI50 [21]: 0.0204 µM
TGI [21]: 0.0416 µM
GI50 [22]: 0.0894 µM
TGI [22]: 16 µM
GI50 [23]: 0.325 µM
TGI [23]: 12.9 µM
GI50 [24]: 14 µM
TGI [24]: 28.7 µM
GI50 [25]: 0.0803 µM
TGI [25]: 18.1 µM
GI50 [26]: 0.375 µM
TGI [26]: 15.1 µM
GI50 [27]: 0.056 µM
TGI [27]: 14.5 µM
GI50 [28]: 20 µM
TGI [28]: 85.6 µM
